Measured values published in patent publication US20010023832A1, “Chemical sensor and use thereof” (priority 1995, published 2001).

Target: the enzyme urea (Canavalia ensiformis, UniProt P07374)
Assay: Effect of potential interfering substances on the pH response of the urea(bio)sensor
Assay type: biochemical
Text: Furthermore, the effect of potential interfering substances, such as glucose, acetone, citric acid and sodium acetate, was investigated, see Table 2.

the enzyme urea, sequence (P07374 whole entry, looked up): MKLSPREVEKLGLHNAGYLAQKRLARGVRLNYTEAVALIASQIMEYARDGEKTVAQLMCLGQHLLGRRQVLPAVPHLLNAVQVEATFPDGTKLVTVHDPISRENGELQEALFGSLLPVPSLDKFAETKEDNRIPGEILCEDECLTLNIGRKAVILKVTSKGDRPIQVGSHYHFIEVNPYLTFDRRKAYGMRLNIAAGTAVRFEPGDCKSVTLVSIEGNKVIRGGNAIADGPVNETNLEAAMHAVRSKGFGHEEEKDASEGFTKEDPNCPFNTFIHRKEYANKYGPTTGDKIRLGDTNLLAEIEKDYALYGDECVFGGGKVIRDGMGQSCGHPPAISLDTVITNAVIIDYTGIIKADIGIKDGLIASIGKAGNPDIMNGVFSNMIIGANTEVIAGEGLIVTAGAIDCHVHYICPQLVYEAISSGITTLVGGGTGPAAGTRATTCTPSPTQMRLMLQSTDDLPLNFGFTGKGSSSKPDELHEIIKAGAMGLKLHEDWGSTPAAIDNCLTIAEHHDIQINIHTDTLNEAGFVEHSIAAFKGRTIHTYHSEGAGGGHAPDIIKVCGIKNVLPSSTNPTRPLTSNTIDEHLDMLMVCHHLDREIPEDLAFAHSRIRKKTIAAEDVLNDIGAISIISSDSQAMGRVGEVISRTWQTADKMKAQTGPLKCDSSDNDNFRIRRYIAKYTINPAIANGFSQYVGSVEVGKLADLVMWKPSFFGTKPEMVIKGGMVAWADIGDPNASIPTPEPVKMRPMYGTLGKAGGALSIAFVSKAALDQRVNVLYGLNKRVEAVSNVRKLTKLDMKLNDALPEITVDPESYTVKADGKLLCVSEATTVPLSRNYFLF

| SMILES | Change in ΔpH (%) (substance 1 mM in sample solution, no stabiliser) | Change in ΔpH (%) (substance 1 mM, value in parentheses, stabiliser (for instance EDTA) injected together with the enzyme) | Change in ΔpH (%) (substance 2 mM in sample solution, no stabiliser) | Change in ΔpH (%) (substance 2 mM, value in parentheses, stabiliser (for instance EDTA) injected together with the enzyme) | Change in ΔpH (%) (substance 0.6 mM in sample solution, urea(bio)sensor, pH electrode) |
| --- | --- | --- | --- | --- | --- |
| O=S(=O)([O-])[O-].[Cu+2] [Copper sulphate] | −38 | 0 | −65 | 0 | – |
| CC(=O)[O-].[Na+] [Sodium acetate] | – | – | – | – | 0 |
